ChEMBL document CHEMBL4346688, “Discovery of novel mutant-combating ALK and ROS1 dual inhibitors bearing imidazolidin-2-one moiety with reasonable PK properties” (Eur J Med Chem, 2019)
Activity calls are given as the source filed them. The rule behind the calls is not given here.

What was measured:
[1] = Volume of distribution in Sprague-Dawley rat at 2 mg/kg, iv by UPLC/MS/MS analysis; format: ADME, organism-based; conditions: in vivo
HCC78 = experiment: cells; conditions: Homo sapiens, HCC78, 72 h
Description: Cytotoxicity against human HCC78 cells incubated for 72 hrs by MTT assay

[2] = target: Tyrosine-protein kinase BTK (Homo sapiens, UniProt Q06187); experiment: Inhibition of N-terminal GST-tagged full length human BTK (2 to 659 residues) expressed in Baculovirus expression system using srctide as substrate incubated for 1 hr by mobility shift assay
[3] = Tmax in Sprague-Dawley rat at 10 mg/kg, po by UPLC/MS/MS analysis; format: ADME, organism-based; conditions: in vivo
[4] = AUCinfinity in Sprague-Dawley rat at 10 mg/kg, po by UPLC/MS/MS analysis; format: ADME, organism-based; parameters: dose 10 mg/kg, route oral, time infinity; conditions: in vivo
Homo sapiens [5] = species: Homo sapiens; experiment: Selectivity index, ratio of IC50 for FGFR (unknown origin) to IC50 for N-terminal GST-tagged human ALK cytoplasmic domain (1058 to 1620 residues)
[6] = target: T1, ALK tyrosine kinase receptor (Homo sapiens, UniProt Q9UM73); experiment: Inhibition of ALK phosphorylation in human H2228 cells incubated for 24 hrs by Western blot analysis; format: cell-based
Target sequence in this assay (Q9UM73 19-1620 limits assumed): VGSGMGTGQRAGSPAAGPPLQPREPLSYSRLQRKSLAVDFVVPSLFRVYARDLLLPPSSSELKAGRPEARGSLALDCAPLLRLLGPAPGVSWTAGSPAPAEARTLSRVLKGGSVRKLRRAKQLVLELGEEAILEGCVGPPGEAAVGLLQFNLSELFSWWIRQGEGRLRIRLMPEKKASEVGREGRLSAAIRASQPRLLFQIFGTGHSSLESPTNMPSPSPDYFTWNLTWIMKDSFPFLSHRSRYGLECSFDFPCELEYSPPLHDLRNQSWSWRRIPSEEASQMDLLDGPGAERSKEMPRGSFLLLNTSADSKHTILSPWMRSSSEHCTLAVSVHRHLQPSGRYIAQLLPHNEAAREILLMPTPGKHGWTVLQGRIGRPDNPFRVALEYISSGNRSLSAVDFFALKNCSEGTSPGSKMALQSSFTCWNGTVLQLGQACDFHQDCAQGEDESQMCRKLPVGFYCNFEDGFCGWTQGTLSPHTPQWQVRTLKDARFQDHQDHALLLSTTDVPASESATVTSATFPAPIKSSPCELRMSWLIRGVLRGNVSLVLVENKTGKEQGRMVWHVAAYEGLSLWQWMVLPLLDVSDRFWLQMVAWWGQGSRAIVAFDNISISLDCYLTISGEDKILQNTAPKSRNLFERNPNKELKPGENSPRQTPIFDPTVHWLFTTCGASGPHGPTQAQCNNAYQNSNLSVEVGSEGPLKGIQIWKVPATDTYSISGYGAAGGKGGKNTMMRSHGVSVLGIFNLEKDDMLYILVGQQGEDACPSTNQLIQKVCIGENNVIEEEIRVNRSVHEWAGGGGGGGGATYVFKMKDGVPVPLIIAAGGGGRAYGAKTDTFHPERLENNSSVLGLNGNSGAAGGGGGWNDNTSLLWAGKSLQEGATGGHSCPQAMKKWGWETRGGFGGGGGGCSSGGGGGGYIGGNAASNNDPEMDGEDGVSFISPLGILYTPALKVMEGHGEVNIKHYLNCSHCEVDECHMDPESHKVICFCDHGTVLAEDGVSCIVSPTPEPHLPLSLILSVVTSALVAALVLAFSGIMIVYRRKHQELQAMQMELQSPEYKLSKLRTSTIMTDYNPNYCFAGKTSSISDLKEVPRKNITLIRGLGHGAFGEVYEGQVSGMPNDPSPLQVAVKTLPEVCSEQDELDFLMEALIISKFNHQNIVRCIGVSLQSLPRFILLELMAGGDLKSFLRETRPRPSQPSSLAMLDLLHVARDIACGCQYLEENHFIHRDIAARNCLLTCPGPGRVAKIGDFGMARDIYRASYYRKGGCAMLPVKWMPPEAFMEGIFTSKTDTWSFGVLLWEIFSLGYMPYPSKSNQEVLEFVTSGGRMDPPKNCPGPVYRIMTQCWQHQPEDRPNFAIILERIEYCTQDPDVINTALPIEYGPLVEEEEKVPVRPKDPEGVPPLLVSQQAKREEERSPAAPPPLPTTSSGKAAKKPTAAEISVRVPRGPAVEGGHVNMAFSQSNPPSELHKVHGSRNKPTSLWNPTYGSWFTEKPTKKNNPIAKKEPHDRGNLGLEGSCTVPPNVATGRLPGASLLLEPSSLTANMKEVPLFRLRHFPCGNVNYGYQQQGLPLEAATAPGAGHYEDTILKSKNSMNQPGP

NCI-H2228 = experiment: cells; conditions: Homo sapiens, NCI-H2228, 72 h
Description: Cytotoxicity against human NCI-H2228 cells incubated for 72 hrs by MTT assay

[7] = Oral bioavailability in Sprague-Dawley rat at 10 mg/kg by UPLC/MS/MS analysis; format: ADME, organism-based; conditions: in vivo
[8] = Cmax in Sprague-Dawley rat at 2 mg/kg, iv by UPLC/MS/MS analysis; format: ADME, organism-based; parameters: dose 2 mg/kg, route intravenous; conditions: in vivo
[9] = Biovailability in Sprague-Dawley rat at 2 mg/kg, iv by UPLC/MS/MS analysis; format: ADME, organism-based; conditions: in vivo
[10] = target: Tyrosine-protein kinase JAK2 (Homo sapiens, UniProt O60674); experiment: Inhibition of N-terminal GST-tagged human JAK2 catalytic domain (826 to 1132 residues) expressed in Baculovirus expression system using srctide as substrate incubated for 1 hr by mobility shift assay
[11] = target: T1, ALK tyrosine kinase receptor; experiment: Inhibition of ALK phosphorylation in human H2228 cells at 100 uM incubated for 24 hrs by Western blot analysis; format: cell-based
Target sequence in this assay (Q9UM73 19-1620 limits assumed): as above

Homo sapiens [12] = species: Homo sapiens; experiment: Selectivity index, ratio of IC50 for N-terminal GST-tagged human c-MET cytoplasmic domain (956 to 1390 residues) to IC50 for N-terminal GST-tagged human ALK cytoplasmic domain (1058 to 1620 residues)
[13] = target: ALK tyrosine kinase receptor (Homo sapiens, UniProt Q9UM73, L1196M)
[14] = system: ALK tyrosine kinase receptor (Homo sapiens), Q9UM73 [G1202R]; experiment: Potency index, ratio of IC50 for ceritinib to IC50 for test compound for inhibition of N-terminal GST-tagged human ALK G1202R mutant cytoplasmic domain (1058 to 1620 residues) expressed in baculovirus expression system using srctide as substrate incubated for 1 hr by mobility shift assay
[15] = target: T2, Proto-oncogene tyrosine-protein kinase ROS (Homo sapiens, UniProt P08922)
[16] = target: ALK tyrosine kinase receptor (Homo sapiens, UniProt Q9UM73, G1202R)
[17] = AUCt in Sprague-Dawley rat at 2 mg/kg, iv by UPLC/MS/MS analysis; format: ADME, organism-based; conditions: in vivo
A549 [18] = experiment: cells; conditions: Homo sapiens, A549, 72 h
Description: Cytotoxicity against human A549 cells incubated for 72 hrs by MTT assay

in vivo = conditions: Sprague-Dawley, rat, po, 10 mg/kg
KARPAS-299 = experiment: cells; conditions: Homo sapiens, KARPAS-299, 72 h
Description: Cytotoxicity against human KARPAS299 cells incubated for 72 hrs by MTT assay

[19] = target: T1, ALK tyrosine kinase receptor
Description: Inhibition of N-terminal GST-tagged human ALK cytoplasmic domain (1058 to 1620 residues) expressed in Baculovirus expression system using srctide as substrate incubated for 1 hr by mobility shift assay

[20] = target: Fibroblast growth factor receptor (Homo sapiens, UniProt P22607+P11362+P22455+P21802); experiment: Inhibition of FGFR (unknown origin) incubated for 1 hr by mobility shift assay; format: protein assay
[21] = target: Proto-oncogene tyrosine-protein kinase receptor Ret (Homo sapiens, UniProt P07949); experiment: Inhibition of N-terminal GST-tagged human RET cytoplasmic domain (658 to 1114 residues) expressed in baculovirus expression system using CSKtide as substrate incubated for 1 hr by mobility shift assay
[22] = target: Cyclin-dependent kinase 4 (Homo sapiens, UniProt P11802); experiment: Inhibition of N-terminal GST-tagged full length human CDK4 (1 to 303 residues) expressed in Baculovirus expression system using DYRKtide F as substrate incubated for 1 hr by mobility shift assay
[23] = target: Hepatocyte growth factor receptor (Homo sapiens, UniProt P08581); experiment: Inhibition of N-terminal GST-tagged human c-MET cytoplasmic domain (956 to 1390 residues) expressed in Baculovirus expression system using srctide as substrate incubated for 1 hr by mobility shift assay
Homo sapiens [24] = species: Homo sapiens; experiment: Selectivity index, ratio of IC50 for N-terminal GST-tagged full length human CDK4 (1 to 303 residues) to IC50 for N-terminal GST-tagged human ALK cytoplasmic domain (1058 to 1620 residues)
[25] = Inhibition of PI3K (unknown origin) incubated for 1 hr by mobility shift assay; parameters: species or system Homo sapiens
[26] = target: Epidermal growth factor receptor (Homo sapiens, UniProt P00533)
Description: Inhibition of N-terminal GST-tagged human EGFR cytoplasmic domain (669 to 1210 residues) expressed in Baculovirus expression system using srctide as substrate incubated for 1 hr by mobility shift assay

[27] = Half life in Sprague-Dawley rat at 2 mg/kg, iv by UPLC/MS/MS analysis; format: ADME, organism-based; conditions: in vivo
[28] = Half life in Sprague-Dawley rat at 10 mg/kg, po by UPLC/MS/MS analysis; format: ADME, organism-based; conditions: in vivo
[29] = target: T2, Proto-oncogene tyrosine-protein kinase ROS; remark: listed apart in the source
Description: Inhibition of N-terminal GST-tagged human ROS1 cytoplasmic domain (1883 to 2347 residues) expressed in Baculovirus expression system using IRS1 as substrate incubated for 1 hr by mobility shift assay

Homo sapiens [30] = species: Homo sapiens; experiment: Selectivity index, ratio of IC50 for N-terminal GST-tagged human IGF1R cytoplasmic domain (959 to 1367 residues) to IC50 for N-terminal GST-tagged human ALK cytoplasmic domain (1058 to 1620 residues)
[31] = AUCinfinity in Sprague-Dawley rat at 2 mg/kg, iv by UPLC/MS/MS analysis; format: ADME, organism-based; parameters: dose 2 mg/kg, route intravenous, time infinity; conditions: in vivo
[32] = AUCt in Sprague-Dawley rat at 10 mg/kg, po by UPLC/MS/MS analysis; format: ADME, organism-based; conditions: in vivo
BaF3 [33] = experiment: cells; conditions: Mus musculus, BaF3, 72 h
Description: Cytotoxicity against mouse BA/F3 cells incubated for 72 hrs by MTT assay

BaF3 [34] = experiment: cells; conditions: Mus musculus, BaF3, 72 h; remark: listed apart in the source
[35] = target: Insulin-like growth factor 1 receptor (Homo sapiens, UniProt P08069); experiment: Inhibition of N-terminal GST-tagged human IGF1R cytoplasmic domain (959 to 1367 residues) expressed in baculovirus expression system using IRS1 as substrate incubated for 1 hr by mobility shift assay
A549 [36] = experiment: cells; conditions: Homo sapiens, A549, 72 h; remark: listed apart in the source

T2 sequence (P08922 whole entry): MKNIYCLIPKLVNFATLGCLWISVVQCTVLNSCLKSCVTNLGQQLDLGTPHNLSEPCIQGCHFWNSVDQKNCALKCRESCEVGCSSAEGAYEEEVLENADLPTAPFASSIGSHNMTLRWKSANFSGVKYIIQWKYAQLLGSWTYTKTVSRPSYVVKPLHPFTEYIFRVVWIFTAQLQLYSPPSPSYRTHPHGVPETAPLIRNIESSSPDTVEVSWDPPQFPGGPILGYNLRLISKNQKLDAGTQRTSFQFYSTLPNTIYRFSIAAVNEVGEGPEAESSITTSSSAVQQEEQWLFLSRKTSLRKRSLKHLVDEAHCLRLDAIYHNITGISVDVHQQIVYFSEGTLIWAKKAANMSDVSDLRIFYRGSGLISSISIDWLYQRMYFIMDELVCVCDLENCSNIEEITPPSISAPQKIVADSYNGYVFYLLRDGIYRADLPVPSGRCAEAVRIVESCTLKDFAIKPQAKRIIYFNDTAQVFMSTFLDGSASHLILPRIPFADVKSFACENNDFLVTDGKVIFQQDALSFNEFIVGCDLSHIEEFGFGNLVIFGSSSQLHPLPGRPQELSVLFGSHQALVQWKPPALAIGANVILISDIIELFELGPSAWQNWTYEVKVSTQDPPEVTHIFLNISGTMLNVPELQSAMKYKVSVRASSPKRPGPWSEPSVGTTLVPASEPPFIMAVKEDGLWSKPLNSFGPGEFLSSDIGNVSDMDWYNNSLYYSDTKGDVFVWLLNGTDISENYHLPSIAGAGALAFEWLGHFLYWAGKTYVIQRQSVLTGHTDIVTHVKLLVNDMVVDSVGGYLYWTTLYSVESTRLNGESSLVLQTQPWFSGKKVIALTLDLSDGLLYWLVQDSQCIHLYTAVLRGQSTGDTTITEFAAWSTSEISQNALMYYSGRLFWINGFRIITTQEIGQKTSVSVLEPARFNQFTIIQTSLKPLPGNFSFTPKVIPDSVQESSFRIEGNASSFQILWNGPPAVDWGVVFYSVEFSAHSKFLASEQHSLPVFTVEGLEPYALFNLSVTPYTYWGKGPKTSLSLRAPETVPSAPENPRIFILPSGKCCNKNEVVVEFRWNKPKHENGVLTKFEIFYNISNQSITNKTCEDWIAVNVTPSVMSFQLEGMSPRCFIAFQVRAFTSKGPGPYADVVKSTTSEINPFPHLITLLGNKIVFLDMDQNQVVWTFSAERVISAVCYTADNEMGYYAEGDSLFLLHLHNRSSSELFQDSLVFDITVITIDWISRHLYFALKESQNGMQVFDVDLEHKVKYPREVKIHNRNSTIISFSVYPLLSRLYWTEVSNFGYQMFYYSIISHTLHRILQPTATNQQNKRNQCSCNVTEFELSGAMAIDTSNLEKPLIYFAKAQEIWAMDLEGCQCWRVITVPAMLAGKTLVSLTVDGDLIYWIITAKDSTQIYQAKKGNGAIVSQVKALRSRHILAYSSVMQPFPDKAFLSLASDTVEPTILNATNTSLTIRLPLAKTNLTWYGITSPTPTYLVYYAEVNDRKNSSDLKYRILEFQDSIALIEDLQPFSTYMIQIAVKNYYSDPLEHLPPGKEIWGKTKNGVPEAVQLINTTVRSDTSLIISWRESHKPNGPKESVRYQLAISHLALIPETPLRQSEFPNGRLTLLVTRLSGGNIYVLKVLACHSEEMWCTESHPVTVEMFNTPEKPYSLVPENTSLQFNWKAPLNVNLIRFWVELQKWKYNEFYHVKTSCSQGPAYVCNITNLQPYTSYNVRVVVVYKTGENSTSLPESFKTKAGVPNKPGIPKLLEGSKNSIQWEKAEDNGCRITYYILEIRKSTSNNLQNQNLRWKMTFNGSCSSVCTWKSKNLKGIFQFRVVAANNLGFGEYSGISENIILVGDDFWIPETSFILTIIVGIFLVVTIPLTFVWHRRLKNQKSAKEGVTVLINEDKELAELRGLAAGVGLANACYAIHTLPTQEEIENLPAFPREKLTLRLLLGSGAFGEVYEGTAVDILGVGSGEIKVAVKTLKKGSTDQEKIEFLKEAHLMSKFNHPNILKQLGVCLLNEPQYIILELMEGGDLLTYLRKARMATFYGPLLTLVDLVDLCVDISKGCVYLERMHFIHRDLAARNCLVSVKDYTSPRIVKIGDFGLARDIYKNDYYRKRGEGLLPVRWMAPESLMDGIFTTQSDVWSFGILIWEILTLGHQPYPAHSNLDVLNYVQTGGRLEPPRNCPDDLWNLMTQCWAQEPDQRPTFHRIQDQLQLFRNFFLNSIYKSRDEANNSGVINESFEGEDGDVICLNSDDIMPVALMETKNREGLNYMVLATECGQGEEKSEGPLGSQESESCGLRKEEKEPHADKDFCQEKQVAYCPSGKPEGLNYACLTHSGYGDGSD
Chain of ALK tyrosine kinase receptor (Homo sapiens, UniProt Q9UM73, G1202R) (Q9UM73 19-1620 G1202R limits assumed): as the sequence (Q9UM73 19-1620 limits assumed) above, with G1184R counted along it
Chain of Proto-oncogene tyrosine-protein kinase receptor Ret (P07949 whole entry, the tested form may be a part): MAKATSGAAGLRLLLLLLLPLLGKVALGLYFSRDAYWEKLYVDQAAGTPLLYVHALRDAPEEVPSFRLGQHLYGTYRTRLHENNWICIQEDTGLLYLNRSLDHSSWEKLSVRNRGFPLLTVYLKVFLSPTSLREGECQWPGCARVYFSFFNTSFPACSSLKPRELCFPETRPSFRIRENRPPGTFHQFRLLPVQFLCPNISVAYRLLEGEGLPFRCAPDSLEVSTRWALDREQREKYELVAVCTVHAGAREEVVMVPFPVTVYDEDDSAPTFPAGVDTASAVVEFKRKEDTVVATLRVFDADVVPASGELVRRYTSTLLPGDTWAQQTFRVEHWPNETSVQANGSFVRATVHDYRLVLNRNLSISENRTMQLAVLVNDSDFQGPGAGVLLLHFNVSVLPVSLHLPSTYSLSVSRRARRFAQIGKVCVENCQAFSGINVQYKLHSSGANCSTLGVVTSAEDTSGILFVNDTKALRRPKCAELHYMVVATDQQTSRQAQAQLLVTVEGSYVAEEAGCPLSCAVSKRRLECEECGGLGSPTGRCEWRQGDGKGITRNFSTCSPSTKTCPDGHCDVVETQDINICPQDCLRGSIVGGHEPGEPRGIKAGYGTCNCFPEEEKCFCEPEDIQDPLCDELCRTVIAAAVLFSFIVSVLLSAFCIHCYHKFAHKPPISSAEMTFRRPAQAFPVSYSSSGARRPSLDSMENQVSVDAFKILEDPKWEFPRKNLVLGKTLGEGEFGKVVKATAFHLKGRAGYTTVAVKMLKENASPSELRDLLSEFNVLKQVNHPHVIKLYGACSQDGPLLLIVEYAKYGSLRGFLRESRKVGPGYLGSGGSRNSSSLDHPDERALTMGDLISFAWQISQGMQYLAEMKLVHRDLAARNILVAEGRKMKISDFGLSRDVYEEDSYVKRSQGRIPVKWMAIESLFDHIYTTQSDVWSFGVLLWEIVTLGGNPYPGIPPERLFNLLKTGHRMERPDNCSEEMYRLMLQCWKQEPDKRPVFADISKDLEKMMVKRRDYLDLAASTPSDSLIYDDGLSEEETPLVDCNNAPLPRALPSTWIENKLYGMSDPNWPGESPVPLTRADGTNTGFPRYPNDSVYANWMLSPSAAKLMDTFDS

## COc1cc(N2CCN(CCN(C)C)C2=O)ccc1Nc1ncc(Cl)c(Nc2ccccc2S(=O)(=O)C(C)C)n1
[1]
  Vd: 9.93 L/kg
HCC78
  IC50: 29 nM
[2]
  IC50: > 1000 nM
[3]
  Tmax: 5.3 h
[4]
  AUC(0-inf): 4510 ng·h/mL
Homo sapiens [5]
  Ratio IC50: 477
[6]
  inhibition: Dose-dependent effect
NCI-H2228
  IC50: 37 nM
[7]
  bioavailability: 23%
[8]
  Cmax: 252 ng/mL
[9]
  F: 100%
[10]
  IC50: > 1000 nM
[11]
  inhibition: Active
Homo sapiens [12]
  Ratio IC50: 178
[13]
  IC50: 0.73 nM
[14]
  Ratio IC50: 30
[15]
  Ratio IC50: 7
[16]
  IC50: 6.7 nM
[17]
  AUC(0-t): 1690 ng·h/mL
A549 [18]
  IC50: > 5 µM
In vivo
  Cmax: 297 ng/mL
KARPAS-299
  IC50: 14 nM
[19]
  IC50: 1.2 nM
[20]
  IC50: 573 nM
[21]
  IC50: > 1000 nM
[22]
  IC50: 417 nM
[23]
  IC50: 213 nM
Homo sapiens [24]
  Ratio IC50: 348
[25]
  IC50: > 1000 nM
[26]
  IC50: > 1000 nM
[27]
  half-life: 414 min
[28]
  half-life: 444 min
[29]
  IC50: 0.43 nM
Homo sapiens [30]
  Ratio IC50: 91
[31]
  AUC: 1965.3 ng·h/mL
[32]
  AUC(0-t): 3420 ng·h/mL
BaF3 [33]
  IC50: 3.13 µM
BaF3 [34]
  IC50: 34 nM
[35]
  IC50: 109 nM
A549 [36]
  IC50: 73 nM
